The values below come from US9242984B2, “Pyrazolyl derivatives as Syk inhibitors” (Merck Sharp & Dohme Corp., priority 2012, dated 2016).

The assay has as its target T1, recombinant human Syk (GST-hSyk fusion protein) (Homo sapiens, UniProt P43405).
T1 construct: purchased Carna Biosciences 08-176
Nature of the assay: Homogeneous Time-Resolved Fluorescence (HTRF) assay for the recombinant human Syk enzyme. It counts as biochemical. The settings on record: IC50 class; 10-dose titration, 25 μM ATP; read-out: rhSYK Activity. The procedure, abridged:
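IC50 came from a four-parameter fit over ten doses, 10 μM to 0.508 nM, with HTRF read-out (Eu-anti-pTyr antibody, SA-APC, EDTA stop, 30 min). The enzyme, 5 pM GST-hSyk, met compound for 10 min, then phosphorylated 250 nM biotin-peptide with 25 μM ATP and 5 mM Mg for 45 min at room temperature, pH 7.5.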
Background: TR-FRET usually uses a lanthanide donor and a delayed reading to cut background.

As for `Cc1cc(Nc2cc(C(F)F)ccn2)nc(-c2cnn(CC3CNC(=O)O3)c2)c1` (stereo not shown) [Example 3.83, 5-{[4-(6-{[4-(difluoromethyl)pyridin-2-yl]amino}-4-methylpyridin-2-yl)-1H-pyrazol-1-yl]methyl}-1,3-oxazolidin-2-one], the IC50 was ≤ 0.1 µM.
Take `O=C1NCC(Cn2cc(-c3cccc(Nc4cc(C(F)F)ccn4)n3)cn2)O1` (stereo not shown) [Example 3.84, 5-{[4-(6-{[4-(difluoromethyl)pyridin-2-yl]amino}pyridin-2-yl)-1H-pyrazol-1-yl]methyl}-1,3-oxazolidin-2-one]: the IC50 is ≤ 0.1 µM.
Consider `Cc1cc(Nc2cc(C(C)(F)F)ccn2)nc(-c2cnn(CC3CNC(=O)O3)c2)c1` (stereo not shown) [Example 3.85, 5-{[4-(6-{[4-(1,1-difluoroethyl)pyridin-2-yl]amino}-4-methylpyridin-2-yl)-1H-pyrazol-1-yl]methyl}-1,3-oxazolidin-2-one], for which the IC50 is ≤ 0.1 µM.
The same measure for `Cc1cc(Nc2cc(C(C)(F)F)ccn2)nc(-c2cnn(CC3CNC(=O)O3)c2)c1` (stereo not shown) [Example 3.86, 5-{[4-(6-{[4-(1,1-difluoroethyl)pyridin-2-yl]amino}-4-methylpyridin-2-yl)-1H-pyrazol-1-yl]methyl}-1,3-oxazolidin-2-one]: ≤ 0.1 µM; for `Cc1cc(Nc2cc(C(F)F)ccn2)nc(-c2cnn(C(C)C3CNC(=O)O3)c2)c1` (stereo not shown) [Example 3.87, 5-{1-[4-(6-{[4-(difluoromethyl)pyridin-2-yl]amino}-4-methylpyridin-2-yl)-1H-pyrazol-1-yl]ethyl}-1,3-oxazolidin-2-one]: ≤ 0.1 µM.
With `Cc1cc(Nc2cc(C(F)F)ccn2)nc(-c2cnn(C(C)C3CNC(=O)O3)c2)c1` (stereo not shown) [Example 3.88, 5-{1-[4-(6-{[4-(difluoromethyl)pyridin-2-yl]amino}-4-methylpyridin-2-yl)-1H-pyrazol-1-yl]ethyl}-1,3-oxazolidin-2-one], the IC50 was ≤ 0.1 µM.
Take `Cc1cc(Nc2nccc(C(F)F)n2)cc(-c2cnn(CC3CC(=O)NC34CC4)c2)c1` (stereo not shown) [Example 3.89, 7-{[4-(3-{[4-(difluoromethyl)pyrimidin-2-yl]amino}-5-methylphenyl)-1H-pyrazol-1-yl]methyl}-4-azaspiro[2.4]heptan-5-one]: the IC50 is ≤ 0.1 µM.
With `Cc1cc(Nc2nccc(C(F)F)n2)cc(-c2cnn(CC3CC(=O)NC34CC4)c2)c1` (stereo not shown) [Example 3.90, 7-{[4-(3-{[4-(difluoromethyl)pyrimidin-2-yl]amino}-5-methylphenyl)-1H-pyrazol-1-yl]methyl}-4-azaspiro[2.4]heptan-5-one], the IC50 is ≤ 0.1 µM.
Under `Cc1cc(Nc2nccc(C(F)F)n2)cc(-c2cnn(C(C)C3CNC(=O)O3)c2)c1` (stereo not shown) [Example 3.91, 5-{1-[4-(3-{[4-(difluoromethyl)pyrimidin-2-yl]amino}-5-methylphenyl)-1H-pyrazol-1-yl]ethyl}-1,3-oxazolidin-2-one] stands ≤ 0.1 µM; under `Cc1cc(Nc2nccc(C(F)F)n2)cc(-c2cnn(CC3OC(=O)NC34CC4)c2)c1` (stereo not shown) [Example 3.92, 7-{[4-(3-{[4-(difluoromethyl)pyrimidin-2-yl]amino}-5-methylphenyl)-1H-pyrazol-1-yl]methyl}-6-oxa-4-azaspiro[2.4]heptan-5-one], ≤ 0.1 µM.
Under `Cc1cc(Nc2nccc(C(F)F)n2)cc(-c2cnn(C(C)C3CNC(=O)O3)c2)c1` (stereo not shown) [Example 3.93, 5-{1-[4-(3-{[4-(difluoromethyl)pyrimidin-2-yl]amino}-5-methylphenyl)-1H-pyrazol-1-yl]ethyl}-1,3-oxazolidin-2-one] stands ≤ 0.1 µM; under `Cc1cc(Nc2nccc(C(F)F)n2)cc(-c2cnn(CC3OC(=O)NC34CC4)c2)c1` (stereo not shown) [Example 3.94, 7-{[4-(3-{[4-(difluoromethyl)pyrimidin-2-yl]amino}-5-methylphenyl)-1H-pyrazol-1-yl]methyl}-6-oxa-4-azaspiro[2.4]heptan-5-one], ≤ 0.1 µM.
Under `Cc1cc(Nc2nccc(C(F)F)n2)cc(-c2cnn(Cc3ccc(=O)[nH]c3)c2)c1` [Example 3.95, 5-{[4-(3-{[4-(difluoromethyl)pyrimidin-2-yl]amino}-5-methylphenyl)-1H-pyrazol-1-yl]methyl}pyridin-2(1H)-one] stands ≤ 0.1 µM; under `Cc1cc(Nc2nccc(C(F)(F)F)n2)cc(-c2cnn(C[C@H]3COC(=O)N3)c2)c1` [Example 3.96, (4S)-4-{[4-(3-methyl-5-{[4-(trifluoromethyl)pyrimidin-2-yl]amino}phenyl)-1H-pyrazol-1-yl]methyl}-1,3-oxazolidin-2-one], ≤ 0.1 µM; under `Cc1cc(Nc2nccc(C(F)(F)F)n2)cc(-c2cnn(C[C@@H]3COC(=O)N3)c2)c1` [Example 3.97, (4R)-4-{[4-(3-methyl-5-{[4-(trifluoromethyl)pyrimidin-2-yl]amino}phenyl)-1H-pyrazol-1-yl]methyl}-1,3-oxazolidin-2-one], ≤ 0.1 µM.
For `CC(=O)C(C)n1cc(-c2cc(C)cc(Nc3nccc(C(F)F)n3)c2)cn1` (stereo not shown) [Example 3.98, 3-[4-(3-{[4-(difluoromethyl)pyrimidin-2-yl]amino}-5-methylphenyl)-1H-pyrazol-1-yl]butan-2-one], the IC50 was ≤ 0.1 µM.
With `Cc1cc(Nc2nccc(C(F)(F)F)n2)cc(-c2cnn(CC3OC(=O)NC3(C)C)c2)c1` (stereo not shown) [Example 3.99, 4,4-dimethyl-5-{[4-(3-methyl-5-{[4-(trifluoromethyl)pyrimidin-2-yl]amino}phenyl)-1H-pyrazol-1-yl]methyl}-1,3-oxazolidin-2-one], the IC50 was ≤ 0.1 µM.
For `Cc1cc(Nc2nccc(C(F)(F)F)n2)cc(-c2cnn(CC3OC(=O)NC3(C)C)c2)c1` (stereo not shown) [Example 3.100, 4,4-dimethyl-5-{[4-(3-methyl-5-{[4-(trifluoromethyl)pyrimidin-2-yl]amino}phenyl)-1H-pyrazol-1-yl]methyl}-1,3-oxazolidin-2-one], the IC50 was ≤ 0.1 µM.
Under `Cc1cc(Nc2nccc(C(C)(F)F)n2)cc(-c2cnn(CC3OC(=O)NC3(C)C)c2)c1` (stereo not shown) [Example 3.101, 5-{[4-(3-{[4-(1,1-difluoroethyl)pyrimidin-2-yl]amino}-5-methylphenyl)-1H-pyrazol-1-yl]methyl}-4,4-dimethyl-1,3-oxazolidin-2-one] stands ≤ 0.1 µM.
For `Cc1cc(Nc2nccc(C(F)F)n2)cc(-c2cnn(CC3OC(=O)NC3(C)C)c2)c1` (stereo not shown) [Example 3.102, 5-{[4-(3-{[4-(difluoromethyl)pyrimidin-2-yl]amino}-5-methylphenyl)-1H-pyrazol-1-yl]methyl}-4,4-dimethyl-1,3-oxazolidin-2-one], the IC50 is ≤ 0.1 µM.
For `Cc1cc(Nc2nccc(C(F)F)n2)cc(-c2cnn(CC3OC(=O)NC3(C)C)c2)c1` (stereo not shown) [Example 3.103, 5-{[4-(3-{[4-(difluoromethyl)pyrimidin-2-yl]amino}-5-methylphenyl)-1H-pyrazol-1-yl]methyl}-4,4-dimethyl-1,3-oxazolidin-2-one], the IC50 was ≤ 0.1 µM.
For `Cc1cc(Nc2nccc(C(C)(F)F)n2)cc(-c2cnn(CC3OC(=O)NC3(C)C)c2)c1` (stereo not shown) [Example 3.104, 5-{[4-(3-{[4-(1,1-difluoroethyl)pyrimidin-2-yl]amino}-5-methylphenyl)-1H-pyrazol-1-yl]methyl}-4,4-dimethyl-1,3-oxazolidin-2-one], the IC50 is ≤ 0.1 µM.
For the compound `Cc1cc(Nc2nccc(C)n2)cc(-c2cnn(CC3OC(=O)NC3(C)C)c2)c1` (stereo not shown) [Example 3.105, 4,4-dimethyl-5-[(4-{3-methyl-5-[(4-methylpyrimidin-2-yl)amino]phenyl}-1H-pyrazol-1-yl)methyl]-1,3-oxazolidin-2-one], the IC50 was ≤ 0.1 µM.
Regarding `Cc1cc(Nc2nccc(C)n2)cc(-c2cnn(CC3OC(=O)NC3(C)C)c2)c1` (stereo not shown) [Example 3.106, 4,4-dimethyl-5-[(4-{3-methyl-5-[(4-methylpyrimidin-2-yl)amino]phenyl}-1H-pyrazol-1-yl)methyl]-1,3-oxazolidin-2-one], the IC50 was ≤ 0.1 µM.
On to `Cc1cc(Nc2nccc(C(F)(F)F)n2)cc(-c2cnn(CC3NC(=O)OC3C)c2)c1` (stereo not shown) [Example 3.107, 5-methyl-4-{[4-(3-methyl-5-{[4-(trifluoromethyl)pyrimidin-2-yl]amino}phenyl)-1H-pyrazol-1-yl]methyl}-1,3-oxazolidin-2-one], for which the IC50 is ≤ 0.1 µM.
The same measure for `Cc1cc(Nc2nccc(C(F)F)n2)cc(-c2cnn(Cc3cnc(C)[nH]3)c2)c1` [Example 3.108, 4-(difluoromethyl)-N-(3-methyl-5-{1-[(2-methyl-1H-imidazol-5-yl)methyl]-1H-pyrazol-4-yl}phenyl)pyrimidin-2-amine]: ≤ 0.1 µM; for `Cc1cc(Nc2nccc(C(F)F)n2)cc(-c2cnn(Cc3[nH]cnc3C)c2)c1` [Example 3.109, 4-(difluoromethyl)-N-(3-methyl-5-{1-[(4-methyl-1H-imidazol-5-yl)methyl]-1H-pyrazol-4-yl}phenyl)pyrimidin-2-amine]: ≤ 0.1 µM.
For `Cc1cc(Nc2nccc(C(F)F)n2)cc(-c2cnn(Cc3c[nH]cn3)c2)c1` [Example 3.110, 4-(difluoromethyl)-N-{3-[1-(1H-imidazol-4-ylmethyl)-1H-pyrazol-4-yl]-5-methylphenyl}pyrimidin-2-amine], the IC50 is ≤ 0.1 µM.
The same measure for `Cc1cc(Nc2nccc(C(F)F)n2)cc(-c2cnn(CCc3cn[nH]c3)c2)c1` [Example 3.111, 4-(difluoromethyl)-N-(3-methyl-5-{1-[2-(1H-pyrazol-4-yl)ethyl]-1H-pyrazol-4-yl}phenyl)pyrimidin-2-amine]: ≤ 0.1 µM.
Under `Cc1cc(Nc2nccc(C(F)F)n2)cc(-c2cnn(CC(O)CO)c2)c1` (stereo not shown) [Example 3.112, 3-[4-(3-{[4-(difluoromethyl)pyrimidin-2-yl]amino}-5-methylphenyl)-1H-pyrazol-1-yl]propane-1,2-diol] stands ≤ 0.1 µM; under `CCC(C)(O)Cn1cc(-c2cc(C)cc(Nc3nccc(C(F)F)n3)c2)cn1` (stereo not shown) [Example 3.113, 1-[4-(3-{[4-(difluoromethyl)pyrimidin-2-yl]amino}-5-methylphenyl)-1H-pyrazol-1-yl]-2-methylbutan-2-ol], ≤ 0.1 µM.
